These results are taken from patent US6974804B2, “Esters” (Unilever Home & Personal Care USA, division of Conopco, Inc., priority 2000, dated 2005).

What all share (assay type): physicochemical
The nature of series [1]: Stability testing of gels: crystal growth visible by eye on storage at 37° C.
Series [2] in a line: DSC of gels: fibre dissolution temperature (FDT) and solubility of structurant. Here is the method:
In this Example the Fibre dissolution temperature (FDT) is measured in the DSC process described later herein, by observing when the fibres dissolve whilst the temperature of sample rises. FDT is taken to be the peak temperature of the highest peak.
In REF2 and REF3, the acyl substituents at the other seven cellobiose sites are nonanoyl.
Samples of gel (about 20 mg) were sealed in stainless steel capsules for DSC. An empty stainless steel capsule was used as the physical reference. The samples were subjected to the following temperature programme:
The sample was heated to 100° C. and held at 100° C. for 1 minute, in order to obtain an isotropic solution. The sample was then cooled at 5 K/min to −20° C. The sample was held at −20° C. for 1 minute. The sample is now a gel on the bottom of the sample capsule prepared in a reproducible manner. The gel was then heated at 5 K/min to 100° C. Data was also obtained with empty stainless steel pans as both physical sample and reference. This blank data was later subtracted from the sample data to remove any curvature in the base line.

Series [3] can be described thus: Gelling of water-immiscible cosmetic liquids in 96 well glass micro-titre plate. Set-up: key: gel; g4: gel after overnight (18 hrs) storage at 4° C.; g22: gel after overnight (18 hrs) storage at 22° C.; sg: soft gel; sg22: soft gel after overnight (18 hrs) storage at 22° C.; solution; *: the test at 4° C. was not carried out. Conditions: for gelling of ISA: 150° C. 2.5 hours, cooled to ambient. The procedure, abridged: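 Esterified cellobiose at about 5% or 10% was mixed with the cosmetic liquid in lidded glass wells and heated at 150 °C for 2.5 h, then cooled to ambient. Gelling was judged by visual inspection and micro-spatula probing after cooling, after 18 h at 18 °C, and after a further 18 h at 4 °C.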

A short description of series [4]: Light transmission at 580 nm (% T). The settings on record: 9% REF2 and 1% of the specified ester in 60:40 hydrogenated polydecene:DC245; 580 nm.
A short description of series [5]: Visual assessment score (clarity of gel in 1 cm cuvette). The procedure, abridged: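 A gel in a 1 cm cuvette was laid on white paper printed with 21 graded sets of black figures, numbered −12 (largest, thickest) to 8 (smallest, thinnest). The score was the highest-numbered set read clearly through the gel, with higher meaning clearer.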

Molecules are shown by their SMILES.

Turning to `CCCCCCCCC(=O)OCC1OC(OC2C(COC(=O)CCCCCCCC)OC(OC(=O)c3ccccc3)C(OC(=O)CCCCCCCC)C2OC(=O)CCCCCCCC)C(OC(=O)CCCCCCCC)C(OC(=O)CCCCCCCC)C1OC(=O)CCCCCCCC` (mixture of isomers) [Ex 1.1], the Observations result in series [1] (9% of REF1 and 1% of additional structurant, after 11 days at 37° C.) is “Slight crystal growth on surface after 11”. Moreover, in series [1] (REF2 to which the CHME structurant was added, after 12 days at 37° C.), the Observation entry is “No crystals after 12 days at 37 °C”. Further, the “Solubility of structurant at 25° C.” value in series [2] (from DSC of gel, relative to benchmark REF 2) is “Less soluble. No”. In series [2] (gel heated at 5 K/min in DSC, peak temperature of the highest peak), this compound showed an FDT of 64 °C. In addition, the “gelling of DC556” value in series [3] (5% cellobiose ester in DC556) and in series [3] (10% cellobiose ester in DC556) was “gel” in each case. In addition, the entries for the “gelling of Finsolv TN” value in series [3] (5% cellobiose ester in Finsolv TN) and in series [3] (10% cellobiose ester in Finsolv TN) were “g4” and “gel”, respectively. Besides, the “gelling of Fluid AP” value in series [3] (5% cellobiose ester in Fluid AP) and in series [3] (10% cellobiose ester in Fluid AP) was “gel” throughout. Moreover, the figures for the “gelling of IPM” value in series [3] (5% cellobiose ester in IPM) and in series [3] (10% cellobiose ester in IPM) were “g4” and “gel”, respectively. The “gelling of ISA” value is “g22” in series [3] (5% cellobiose ester in ISA) and “gel” in series [3] (10% cellobiose ester in ISA). In addition, the “gelling of Mineral oil” value in series [3] (5% cellobiose ester in Mineral oil) and in series [3] (10% cellobiose ester in Mineral oil) was “gel” each time. The “gelling of Polydecene” value in series [3] (5% cellobiose ester in Polydecene) and in series [3] (10% cellobiose ester in Polydecene) was “gel” each time. The “Clarity % T” value in series [4] was 55%. In addition, the “Clarity Visual (assessment score)” value in series [5] (9% REF2 and 1% of the specified ester in 60:40 hydrogenated polydecene:DC245, scale −12 to 8) is “translucent 5”. In series [5] (60:40 hydrogenated polydecene:DC245 gelled with 9% REF2 and 1% of the specified cellobiose ester), the “Clarity Visual (appearance)” value is recorded as “transparent/”.
